The source of these data is patent US9078851B2, “Composition for preventing or treating a spinal cord injury” (UNIVERSITY-INDUSTRY COOPERATION GROUP OF KYUNG HEE, priority 2009, dated 2015).

Holding throughout (type): in vivo, rat
Test [1] relates to activated microglia/macrophage. Description: Immunofluorescence staining of ED1 at spinal cord injury site. The settings on record: 5 nmol/kg tail vein at immediately, 24 h, 48 h after spinal cord injury; 5 days after operation; vs control, rostal to caudal area. Here is the method: (§1) For the present experiment, male white mice (Sprague-Dawley 240-250 g, 7 weeks, 10 mice) were under general anesthetics by an intraperitoneal injection of Ketamin (80 mg/kg, Yuhan Corporation) and Rompun (7.4 mg/kg, Bayer Korea Corporation). Laminectomy was performed at spine T9-10 level to expose a spinal cord keeping intact dura. And then, rat was put on Spinal cord dropping device (NYU); spine processes at T8 and T11 sites were fixed by using a clamp, respectively; then, a rod (diameter 2 mm, weight 10 g) was dropped from 25 mm height vertical to dorsal part of spinal cord followed by suturing injury site muscle and skin. The rat of Sham-operated control group was performed only laminectomy at same area without damaging spinal cord injury (marked by ‘sham” in figures; hereinafter, the same as above).
(§2) Substance P (marked by ‘SP’ in figures; hereinafter, the same as above) dissolved in saline of 5 nmol/kg concentration was injected through tail vein at immediately, 24 hours, and 48 hours after a spinal cord injury for experimental groups. At sham control group, same volume of saline (marked by ‘vehicle’ in figures; hereinafter, the same as above) without Substance P was injected at same time points. Operation were performed on an electric heating pad of 37° C., and then rat were transferred to cage after awake from the anesthetic. • (2) Preparation of Tissue […]

Test [2] deals with M2 (ED1 positive, CD206 positive) phenotype macrophages. Description: MACS assay of M1/M2 phenotype macrophages in spinal cord injury model. The settings on record: tail vein injection, five days after spinal cord injury. Here is the method: as §1, with “The rat of Sham-operated control group was performed only laminectomy at same area without damaging spinal cord injury (marked by ‘sham” in figures; hereinafter, the same as above).” left out
Microglia and macrophage have an inflammatory macrophage phenotype (M1) and selectively activated macrophage phenotype (M2). […] MACS (Miltenyi Biotec, Bergisch Gladbach) assay was performed in order to determine a quantitative amount of M1 (ED1 positive, CD206 negative) and M2 (ED1 positive, CD206 positive) phenotype macrophages after Substance P-injection in a spinal cord injury model.
At immediately, 1 d, 2d, Substance P or saline (the same volume without Substance P) was injected to a tail vein after a spinal cord injury, using the same method as (1) of Example 1. […] Magnetically labeled cells were collected by washing the column and then counted. […]

Test [3] deals with apoptosis of nerve cells and oligodendrocytes. Description: TUNEL staining of apoptosis at spinal cord injury site. Particulars: tail vein injection. Here is the method:
as §1, §2

As to Substance P, the “activated microglia/macrophage expressing ED1 antigen” value in test [1] is on record as “significantly decreased”. In addition, in test [2], the “CD-206 positive percentage as compared with the control” value was “about 6.5 times” and the “activated microglia/macrophages CD-206 positive” value is reported as 58.7%. Besides, the apoptosis of oligodendrocytes entry in test [3] (five days after damaging) is recorded as “significantly decreased”. The “apoptosis of nerve cells” value in test [3] (one day after damaging) is reported as “decreased”.
